{"source": "patent US10597388B2", "about": "“Pyridazinone herbicides” (FMC CORPORATION, priority 2014, dated 2020)", "experiment_in_all_cases": "Test D controlled growth environment herbicide test, pre- and postemergence", "format_in_all_cases": "in vivo", "key": {"[1]": {"system": "chickweed (common chickweed, Stellaria media)", "how_it_was_run": "(§1)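 Rating is visual, 0–100 scale (100 = complete control), made against untreated plants 14–21 d after treatment in controlled growth conditions. Postemergence sprays went onto 1- to 4-leaf plants in peat medium; preemergence sprays onto silt loam after sowing; formulation included a surfactant.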"}, "[2]": {"system": "field violet (Viola arvensis)", "how_it_was_run": "as §1"}, "[3]": {"system": "pigweed (Amaranthus retroflexus)", "how_it_was_run": "as §1"}, "[4]": {"system": "galium (catchweed bedstraw, Galium aparine)", "how_it_was_run": "as §1"}, "[5]": {"system": "chamomile (scentless chamomile, Matricaria inodora)", "how_it_was_run": "as §1"}, "[6]": {"system": "barley, winter (winter barley, Hordeum vulgare)", "how_it_was_run": "as §1"}, "[7]": {"system": "foxtail, green (green foxtail, Setaria viridis)", "how_it_was_run": "as §1"}, "[8]": {"system": "bluegrass (annual bluegrass, Poa annua)", "how_it_was_run": "as §1"}, "[9]": {"system": "kochia (Kochia scoparia)", "how_it_was_run": "as §1"}, "[10]": {"system": "bromegrass, downy (downy bromegrass, Bromus tectorum)", "how_it_was_run": "as §1"}, "[11]": {"system": "blackgrass (Alopecurus myosuroides)", "how_it_was_run": "as §1"}, "[12]": {"system": "lambsquarters (Chenopodium album)", "how_it_was_run": "as §1"}, "[13]": {"system": "wheat, winter (winter wheat, Triticum aestivum)", "how_it_was_run": "as §1"}, "[14]": {"details": "Postemergence, 31 g ai/ha, scale 0 to 100 (0 no effect, 100 complete control)"}, "[15]": {"details": "Postemergence, 125 g ai/ha, visual rating on scale 0 (no effect) to 100 (complete control), 14 to 21 d"}, "[16]": {"details": "Postemergence, 250 g ai/ha, scale 0 to 100 (0 no effect, 100 complete control)"}, "[17]": {"details": "Preemergence, 62 g ai/ha, scale 0 to 100 (0 no effect, 100 complete control)"}, "[18]": {"details": "Preemergence, 125 g ai/ha, scale 0 to 100 (0 no effect, 100 complete control)"}, "[19]": {"details": "Preemergence, 250 g ai/ha, scale 0 to 100, 0 no effect, 100 complete control"}, "[20]": {"details": "postemergence, 62 g ai/ha, scale 0 to 100, 0 no effect, 100 complete control"}}, "data": [{"smiles": "Cc1nn(C)c(=O)c(-c2cccc3ccccc23)c1O", "note": "[Compound 11, 5-hydroxy-2,6-dimethyl-4-(1-naphthalenyl)-3(2H)-pyridazinone]", "values": [{"measurement": "Chickweed plant response rating", "setting": "[1]; [14]", "value": 45}, {"measurement": "Plant response rating, Chickweed", "setting": "[1]; [15]", "value": 80}, {"measurement": "Plant response rating, Chickweed", "setting": "[1]; [16]", "value": 100}, {"measurement": "Plant response rating (scale of 0 to 100), Chickweed", "setting": "[1]; Preemergence, 31 g ai/ha", "value": 20}, {"measurement": "Plant response rating, Chickweed", "setting": "[1]; [17]", "value": 100}, {"measurement": "Plant response rating, Chickweed", "setting": "[1]; [18]", "value": 100}, {"measurement": "Plant response rating, Chickweed", "setting": "[1]; [19]", "value": 100}, {"measurement": "Plant response rating, Chickweed", "setting": "[1]; [20]", "value": 90}, {"measurement": "Field Violet plant response rating", "setting": "[2]; [14]", "value": 65}, {"measurement": "Plant response rating, Field Violet", "setting": "[2]; [15]", "value": 75}, {"measurement": "Plant response rating, Field Violet", "setting": "[2]; [16]", "value": 90}, {"measurement": "Plant response rating (scale of 0 to 100), Field Violet", "setting": "[2]; Preemergence, 31 g ai/ha", "value": 85}, {"measurement": "Plant response rating, Field Violet", "setting": "[2]; [17]", "value": 100}, {"measurement": "Plant response rating, Field Violet", "setting": "[2]; [18]", "value": 100}, {"measurement": "Plant response rating, Field Violet", "setting": "[2]; [19]", "value": 100}, {"measurement": "Plant response rating, Field Violet", "setting": "[2]; [20]", "value": 65}, {"measurement": "Pigweed plant response rating", "setting": "[3]; [14]", "value": 35}, {"measurement": "Plant response rating, Pigweed", "setting": "[3]; [15]", "value": 95}, {"measurement": "Plant response rating, Pigweed", "setting": "[3]; [16]", "value": 100}, {"measurement": "Plant response rating (scale of 0 to 100), Pigweed", "setting": "[3]; Preemergence, 31 g ai/ha", "value": 0}, {"measurement": "Plant response rating, Pigweed", "setting": "[3]; [17]", "value": 0}, {"measurement": "Plant response rating, Pigweed", "setting": "[3]; [18]", "value": 98}, {"measurement": "Plant response rating, Pigweed", "setting": "[3]; [19]", "value": 100}, {"measurement": "Plant response rating, Pigweed", "setting": "[3]; [20]", "value": 65}, {"measurement": "Galium plant response rating", "setting": "[4]; [14]", "value": 85}, {"measurement": "Plant response rating, Galium", "setting": "[4]; [15]", "value": 90}, {"measurement": "Plant response rating, Galium", "setting": "[4]; [16]", "value": 90}, {"measurement": "Plant response rating (scale of 0 to 100), Galium", "setting": "[4]; Preemergence, 31 g ai/ha", "value": 70}, {"measurement": "Plant response rating, Galium", "setting": "[4]; [17]", "value": 80}, {"measurement": "Plant response rating, Galium", "setting": "[4]; [18]", "value": 100}, {"measurement": "Plant response rating, Galium", "setting": "[4]; [19]", "value": 100}, {"measurement": "Plant response rating, Galium", "setting": "[4]; [20]", "value": 85}, {"measurement": "Chamomile plant response rating", "setting": "[5]; [14]", "value": 40}, {"measurement": "Plant response rating, Chamomile", "setting": "[5]; [15]", "value": 75}, {"measurement": "Plant response rating, Chamomile", "setting": "[5]; [16]", "value": 90}, {"measurement": "Plant response rating, Chamomile", "setting": "[5]; [20]", "value": 65}, {"measurement": "Plant response rating, Barley, Winter", "setting": "[6]; [14]", "value": 20}, {"measurement": "Plant response rating, Barley, Winter", "setting": "[6]; [15]", "value": 25}, {"measurement": "Plant response rating, Barley, Winter", "setting": "[6]; [16]", "value": 40}, {"measurement": "Plant response rating (scale of 0 to 100), Barley, Winter", "setting": "[6]; Preemergence, 31 g ai/ha", "value": 5}, {"measurement": "Plant response rating, Barley, Winter", "setting": "[6]; [17]", "value": 5}, {"measurement": "Plant response rating, Barley, Winter", "setting": "[6]; [18]", "value": 5}, {"measurement": "Barley, Winter plant response rating", "setting": "[6]; [19]", "value": 20}, {"measurement": "Plant response rating, Barley, Winter", "setting": "[6]; [20]", "value": 20}, {"measurement": "Foxtail, Green plant response rating", "setting": "[7]; [14]", "value": 5}, {"measurement": "Plant response rating, Foxtail, Green", "setting": "[7]; [15]", "value": 65}, {"measurement": "Plant response rating, Foxtail, Green", "setting": "[7]; [16]", "value": 70}, {"measurement": "Plant response rating (scale of 0 to 100), Foxtail, Green", "setting": "[7]; Preemergence, 31 g ai/ha", "value": 10}, {"measurement": "Plant response rating, Foxtail, Green", "setting": "[7]; [17]", "value": 10}, {"measurement": "Plant response rating, Foxtail, Green", "setting": "[7]; [18]", "value": 15}, {"measurement": "Plant response rating, Foxtail, Green", "setting": "[7]; [19]", "value": 65}, {"measurement": "Plant response rating, Foxtail, Green", "setting": "[7]; [20]", "value": 25}, {"measurement": "Bluegrass plant response rating", "setting": "[8]; [14]", "value": 5}, {"measurement": "Plant response rating, Bluegrass", "setting": "[8]; [15]", "value": 5}, {"measurement": "Plant response rating, Bluegrass", "setting": "[8]; [16]", "value": 15}, {"measurement": "Plant response rating (scale of 0 to 100), Bluegrass", "setting": "[8]; Preemergence, 31 g ai/ha", "value": 10}, {"measurement": "Plant response rating, Bluegrass", "setting": "[8]; [17]", "value": 15}, {"measurement": "Plant response rating, Bluegrass", "setting": "[8]; [18]", "value": 30}, {"measurement": "Bluegrass plant response rating", "setting": "[8]; [19]", "value": 55}, {"measurement": "Plant response rating, Bluegrass", "setting": "[8]; [20]", "value": 5}, {"measurement": "Kochia plant response rating", "setting": "[9]; [14]", "value": 60}, {"measurement": "Plant response rating, Kochia", "setting": "[9]; [15]", "value": 85}, {"measurement": "Plant response rating, Kochia", "setting": "[9]; [16]", "value": 100}, {"measurement": "Plant response rating (scale of 0 to 100), Kochia", "setting": "[9]; Preemergence, 31 g ai/ha", "value": 10}, {"measurement": "Plant response rating, Kochia", "setting": "[9]; [17]", "value": 40}, {"measurement": "Plant response rating, Kochia", "setting": "[9]; [18]", "value": 75}, {"measurement": "Plant response rating, Kochia", "setting": "[9]; [19]", "value": 95}, {"measurement": "Plant response rating, Kochia", "setting": "[9]; [20]", "value": 75}, {"measurement": "Bromegrass, Downy plant response rating", "setting": "[10]; [14]", "value": 15}, {"measurement": "Plant response rating, Bromegrass, Downy", "setting": "[10]; [15]", "value": 25}, {"measurement": "Plant response rating, Bromegrass, Downy", "setting": "[10]; [16]", "value": 50}, {"measurement": "Plant response rating (scale of 0 to 100), Bromegrass, Downy", "setting": "[10]; Preemergence, 31 g ai/ha", "value": 5}, {"measurement": "Plant response rating, Bromegrass, Downy", "setting": "[10]; [17]", "value": 5}, {"measurement": "Plant response rating, Bromegrass, Downy", "setting": "[10]; [18]", "value": 20}, {"measurement": "Plant response rating, Bromegrass, Downy", "setting": "[10]; [19]", "value": 55}, {"measurement": "Plant response rating, Bromegrass, Downy", "setting": "[10]; [20]", "value": 15}, {"measurement": "Blackgrass plant response rating", "setting": "[11]; [14]", "value": 25}, {"measurement": "Plant response rating, Blackgrass", "setting": "[11]; [15]", "value": 70}, {"measurement": "Plant response rating, Blackgrass", "setting": "[11]; [16]", "value": 70}, {"measurement": "Plant response rating (scale of 0 to 100), Blackgrass", "setting": "[11]; Preemergence, 31 g ai/ha", "value": 5}, {"measurement": "Plant response rating, Blackgrass", "setting": "[11]; [17]", "value": 30}, {"measurement": "Plant response rating, Blackgrass", "setting": "[11]; [18]", "value": 55}, {"measurement": "Blackgrass plant response rating", "setting": "[11]; [19]", "value": 75}, {"measurement": "Plant response rating, Blackgrass", "setting": "[11]; [20]", "value": 40}, {"measurement": "Lambsquarters plant response rating", "setting": "[12]; [14]", "value": 60}, {"measurement": "Plant response rating, Lambsquarters", "setting": "[12]; [15]", "value": 80}, {"measurement": "Plant response rating, Lambsquarters", "setting": "[12]; [16]", "value": 85}, {"measurement": "Plant response rating (scale of 0 to 100), Lambsquarters", "setting": "[12]; Preemergence, 31 g ai/ha", "value": 25}, {"measurement": "Plant response rating, Lambsquarters", "setting": "[12]; [17]", "value": 35}, {"measurement": "Plant response rating, Lambsquarters", "setting": "[12]; [18]", "value": 100}, {"measurement": "Plant response rating, Lambsquarters", "setting": "[12]; [19]", "value": 100}, {"measurement": "Plant response rating, Lambsquarters", "setting": "[12]; [20]", "value": 80}, {"measurement": "Wheat, Winter plant response rating", "setting": "[13]; [14]", "value": 10}, {"measurement": "Plant response rating, Wheat, Winter", "setting": "[13]; [15]", "value": 15}, {"measurement": "Plant response rating, Wheat, Winter", "setting": "[13]; [16]", "value": 25}, {"measurement": "Plant response rating (scale of 0 to 100), Wheat, Winter", "setting": "[13]; Preemergence, 31 g ai/ha", "value": 0}, {"measurement": "Plant response rating, Wheat, Winter", "setting": "[13]; [17]", "value": 0}, {"measurement": "Plant response rating, Wheat, Winter", "setting": "[13]; [18]", "value": 20}, {"measurement": "Plant response rating, Wheat, Winter", "setting": "[13]; [19]", "value": 30}, {"measurement": "Plant response rating, Wheat, Winter", "setting": "[13]; [20]", "value": 15}]}]}
